According to US20140357706A1, “Stearate Compounds” (THE UAB RESEARCH FOUNDATION, priority 2011, published 2014):

How the values were obtained:
[1] = system: p21^CIP1/WAF1, p27^KIP1, pCdk2; assay: Immunoblot of p21CIP1/WAF1, p27KIP1 and phosphorylated Cdk2 in Hs578T cells; format: cell-based, human
Protocol: (§1) The concentration of stearate used to treat the Hs578T cells was 50 μM. When EGF was used, the concentration was 1 nM EGF. Before the treatment with stearate or EGF, cells were first starved for 24-48 hours. Stearate was loaded onto fatty acid-free bovine serum albumin (BSA) according to the method reported by Spector et al. (13); briefly, stearate (0.5 g) was dissolved in chloroform (100 ml) and mixed well with 10 g diatomaceous earth in a 1 liter flask. The mixture was stirred and dried under nitrogen until powder. BSA is a physiological carrier of fatty acids and was used to avoid the introduction of organic solvents to solutions coming into contact with cells. Fatty acid-free BSA (1 g) was dissolved in 100 ml with Dulbecco's modified Eagle's medium without phenol red and mixed with 3 g of the stearate/diatomaceous earth mixture with stirring for 45 min. The stearate/BSA solution was filtered through a 0.45 μm filter, and adjusted to pH 7.4. The concentration of stearate in the solution was detected with the NEFA C Kit from Wako Chemicals GmbH (Neuss, Germany). All experimental data on Hs578T cells were controlled using fatty acid-free BSA control solutions that were put through the same preparatory procedure described for the stearate/BSA solution except for the fact that no fatty acid was added.
Cells were treated as described above, and lysed with lysis buffer. The supernatants of the lysates or the immunoprecipitates were loaded with Laemmli sample buffer on 10% sodium dodecyl sulfate-polyacrylamide gel electrophoresis gels after boiling at 100° C. for 5 min. Proteins were then transferred to a polyvinylidene difluoride membrane. The membranes were blocked overnight at 4° C. with blocking buffer containing 5% non-fat dried milk powder in Tris-buffered saline-T (25 mM Tris, 140 mM NaCl, 2.7 mM KCl, 0.05% Tween-20, pH 8.0), incubated with primary antibody in blocking buffer at room temperature for 1 hour and incubated with antirabbit or antimouse antibodies labeled with horseradish peroxidase (1:5000) in blocking buffer under the same conditions, and then washed three times for 10 min in Tris-buffered saline-T. The polyvinylidene difluoride membranes were washed and developed using enhanced chemiluminescence reagents.

ERK = assay: Immunoblot of phosphorylated ERK in Hs578T cells; format: cell-based, human; settings: PD98059 added to Hs578T cells
Protocol: as §1
Cells were treated as described above, and lysed with lysis buffer. […]

[2] = system: differentiated 3T3L1 adipocytes; assay: Necrosis and apoptosis of differentiated 3T3L1 adipocytes (trypan blue, LDH, flow cytometry); format: cell-based, mouse; settings: 50 μM
Protocol: 3T3L1 mouse fibroblast cells (ATCC, CL-173™) were maintained according to the manufacture's protocol, in Dulbecco's modified eagle's medium (DMEM) containing 10% Fetal Bovine Serum and antibiotics (M1 medium). Adipocyte differentiation was performed according to standard procedures (42). Briefly, the 3T3L1 fibroblasts were seeded at 30% confluence and allowed to grow to near 100% confluence. On the day after reaching maximum confluence, conversion was induced by replacing the M1 medium with M1 medium containing insulin (5 μg/ml), dexamethasone (0.25 μM), and 3-isobutyl-1-methyl-xanthine (0.5 mM). After 2 days, the cells were changed to M1 medium with insulin (5 μg/ml) for an additional 2 days. Thereafter, the cells were maintained in M1 medium without additives for 2 days.
(§2) 50 μM of stearate, oleate or linoleate was used to treat 3T3L1 cells as this concentration is centered within the normal range for non-esterified stearate in the plasma of humans. Stearate, oleate, or linoleate was loaded onto fatty acid free BSA according to the method reported by Spector and Hoak (Spector and Hoak, 1969). Briefly, stearate (0.5 g) was dissolved in chloroform (100 mL) and mixed well with 10 g diatomaceous earth in a 1 liter flask. The mixture was stirred and dried under nitrogen until powder. Fatty acid free BSA (1 g) was dissolved in 100 mL with DMEM without phenol red and mixed with 3 g of the stearate/diatomaceous earth mixture and stirred for 30 minutes. The stearate/BSA solution was filtered through a 0.45 μm filter, and adjusted to pH 7.4. The concentration of stearate in the solution was detected by use of a NEFA C kit. Oleic and linoleate were loaded in the same way. […] Before the treatment with fatty acid, 3T3L1 preadipocytes were grown to 100%, and were starved in 2% FBS medium for 24 hours.
(§3) After treatment, 3T3L1 cells were harvested, washed with cold PBS, and then resuspended in 100 μl annexin-binding buffer (50 mM HEPES, 700 mM NaCl, 12.5 mM CaCl2, pH 7.4). Cell density was determined, and the cells were diluted to 10^6 cells. Then 5μL of Alex Fluo 488 annexin V and 1 μL propidium iodide (PI) were added. Cells were gently oscillated and incubated for 15 min at room temperature. After adding 400 μL of binding buffer to each tube, cells were kept on ice and analyzed by flow cytometry within 1 hour. Cells that stained positive for Alex Fluo 488 annexin V and negative for PI were considered to be apoptotic. Cells that stained positive for both Alex Fluo 488 annexin V and PI were considered either in the end stage of apoptosis, or necrosis. Cells that stained negative for both Alex Fluo 488 annexin V and PI were considered alive and not undergoing measurable apoptosis. A BD LSR II flow cytometer from Becton Dickinson was used in all flow experiments and the data were analyzed with BD FACSDiva™ software V.6.1.3.
(§4) Lactate dehydrogenase (LDH) release was measured using a cytotoxicity detection kit, according to the manufacture's protocol. After 3T3L1 cells were treated, 1 ml of cell culture medium was removed and centrifuged. The supernatant was retained for assaying. For determinations, 100 μl of LDH assay reagent was added to 100 μl of supernatant and incubated for 30 min at room temperature in the dark. Absorbance was measured at 490 nm. Background release from culture medium alone was subtracted before reporting. Maximum release was measured after adding 2% Triton X-100 to untreated cells.
(§5) After treatment, 3T3L1 cells were harvested and stained with 0.4% trypan blue solution. Cells in the four corners of the grid were counted under a conventional bright field binocular microscope.

[3] = system: visceral adipocytes from ApoE knockout mice; assay: Expression of cIAP2, Bcl-2 and Bax in visceral adipocyte cultures; format: cell-based; settings: 50 μM fatty acid; vs no additional fatty acid
Protocol: It was hypothesized that stearate induces apoptosis in visceral adipocytes by at least one of the following mechanisms: inhibition of cIAP2, activation of Bcl-2, and activation of BAX. […] Six cultures were exposed to each fatty acid or no fatty acid. The expression of cIAP2, Bcl-2, and Bax was measured in each culture. […] By decreasing levels of the cIAP2 and/or Bcl-2 polypeptides and increasing expression of the Bax polypeptide, stearate administration may lead to an increase in cellular apoptotic activity (such as but not limited to the visceral fat tissues). Without wishing to be bound by any given hypothetical model, it is proposed that this reduction in cIAP2 expression and this increase in Bax expression (independently or in combination) is responsible for the relative decrease in visceral fat tissue that is observed when animals are given a diet that is high in stearate.

3T3L1 preadipocytes = assay: Cell death and apoptosis of 3T3L1 preadipocytes (trypan blue, LDH, flow cytometry); format: cell-based, mouse; settings: 50 μM, vs control; for Percentage of dead cells (trypan blue): 48 hour treatment; for Dead cells (flow cytometry): 48 hours; for Cytotoxicity (lactate dehydrogenase): after 24 hours
Protocol: as §2, §3, §4, §5

[4] = PD98059 in stearate-treated cells

SMILES	Stearate-induced upregulation of p21^CIP1/WAF1 ([1]; PD98059 added following stearate and EGF treatment)	Stearate-induced decrease in pCdk2 [1, 4]	Stearate-induced increases in p27^KIP1 [1, 4]	ERK phosphorylation induced by stearate and EGF (ERK)	Cytotoxicity (lactate dehydrogenase in medium) [2]	Percentage of apoptotic cells (flow cytometry) [2]	Percentage of dead cells (flow cytometry) [2]	Percentage of dead cells (trypan blue) [2]	Expression of Bax [3]	Expression of cIAP2 [3]	Percentage of dead cells (trypan blue) (3T3L1 preadipocytes)	Dead cells (flow cytometry) (3T3L1 preadipocytes)	Cytotoxicity (lactate dehydrogenase) (3T3L1 preadipocytes)	Apoptotic cells (flow cytometry) (3T3L1 preadipocytes)
COc1cccc(-c2cc(=O)c3ccccc3o2)c1N [PD98059, 2′-amino-3′-methoxyflavone, reference compound]	reverses	only partially reversed	did not reverse	blocked										
CCCCC/C=C\C/C=C\CCCCCCCC(=O)O [linoleate, linoleic acid]					no significant changes	no significant changes	no significant changes	no significant changes	increased the expression of Bax to a lesser extent	no statistically significant effect	no significant changes	no significant effects	did not change significantly	No significant changes
CCCCCCCC/C=C\CCCCCCCC(=O)O [oleate, oleic acid]					no significant changes	no significant changes	no significant changes	no significant changes			no significant changes	significantly decreased	significantly decreased	decreased
